Like-named read-outs stand apart in the source and are kept apart here.
Tests used:
[1] = biological target: T1, CD19 CARs tagged with IKZF1 ZNF2_ZNF3 Q1F (Homo sapiens, UniProt Q13422, Q146F); experiment: Small-molecule screen: Q1F degron-tagged CD19 CAR levels in Jurkat cells, flow cytometry; type: cell-based
T1 construct: EC50 (Q1F degron); other: Jurkat cells, 18 hours, CAR levels normalized to no drug; Ymin (Q1F degron); Ymin (%); minimum percent protein remaining; Nluc reporter
Method: A set of potential degron-targeting compounds was screened against the Q1F degron, resulting in a set of potent degron/small-molecule pairs. Lentiviral vectors containing CD19 CARs tagged with IKZF1 ZNF2_ZNF3 Q1F Nluc were transduced into Jurkat cells. The CD19 CAR was similar to the CD19 CAR in Example 2, but comprising the ZNF2_ZNF3 Q1F degron (SEQ ID NO: 19). Transduced cells were treated with a titration of each small molecule or no drug and then incubated at 37° C. for 18 hours. Cells were washed and stained with appropriate staining reagent to measure CAR levels. The cells were incubated at 4° C. in the staining reagents for 20 mins and then washed 3 times before being read on the flow cytometer. CAR levels were normalized to cells that had not been treated with drug. EC50 and Ymin values were calculated using the resulting titration curve. This identified small molecules that potently degraded the Q1F degron-tagged CARs (Table 1).

[2] = biological target: T2, IKZF1 ZNF2_3 Q1F tagged CD19 CAR (Homo sapiens, UniProt Q13422, Q146F); experiment: CRBN and ubiquitin-proteasome pathway dependence of Q1F-tagged CAR degradation in Jurkat cells; type: cell-based; parameters: tagged CAR remaining / levels of tagged CAR: dose or concentration left out as unconfirmed; settings: Jurkat CRBN KO cells, 1 hour
T2 construct: expressed in transfected cells; host or cells: Jurkat wild type, Jurkat CRBN knockout, Jurkat reporter line; lentiviral transduction
Method: (§1) The dependence of Q1F-degron-tagged CAR degradation on CRBN and ubiquitin proteolytic pathway were assessed. CD19-targeting CAR was tagged with either IKZF1 ZNF2_3 Q1F (SEQ ID NO: 19) or Q1F/G6N (SEQ ID NO: 59). Lentiviral vectors containing these tagged CARs were then transduced into wildtype (WT) or cereblon (CRBN) knockout (KO) Jurkat cells.
(§2) Next, dependence of CAR degradation on the ubiquitin-proteosome pathway was tested by treating WT Jurkats transduced with tagged CAR for 2 hours with DMSO, 20 nM or 200 nM Compound C alone, or alongside either 2 μM of the NEDD8 E1 enzyme inhibitor MLN4924 or 2 μM of proteasome blocker Bortezomib (FIG. 11C).

[3] = test system: IKZF1 ZNF2_3 Q1F tagged CD19 CAR; experiment: as above; type: cell-based, human; parameters: tagged CAR remaining / levels of tagged CAR: dose or concentration left out as unconfirmed
Method: as §1, §2

[4] = test system: H-1975 ROR1 expressing target cell line; experiment: Primary CAR T effector function (tumor killing, cytokine production) in co-culture; type: cell-based; settings: 1:4 effector:target, 24 hours, different concentrations
Method: The ability to use compounds to titrate primary CAR T effector function by degrading IKZF1 ZNF2_3 Q1F tagged anti-ROR1 CAR (FIG. 13A) was evaluated. The CAR included similar transmembrane, costimulatory, and signaling domains as the CD19 CAR, but with an anti-ROR1 scFv. A lentiviral vector encoding ZNF2_3 Q1F tagged or untagged anti-ROR1 CAR was transduced into activated primary T cells. Transduced cells were expanded for 10 days in media supplemented with IL2, IL7, and IL15, then frozen. Prior to the experiment, cells were thawed and allowed to rest in media with a dose titration of Compound C or without drug. […] To determine the impacts of CAR degradation on CAR T activity, cells were then co-cultured with a Nuclight red labeled H-1975 ROR1 expressing target cell line at a 1:4 effector:target cell ratio. Co-cultures were placed in the Incucyte for 24 hours to monitor tumor killing via Nuclight red signal (FIG. 14A), and supernatants were collected to measure proinflammatory cytokine production by MSD (FIG. 14B-14D; IL-2, TNFα, and IFNγ).

ePL-tagged Aiolos = biological target: T3, ePL-tagged Aiolos (Homo sapiens, UniProt Q96SW2+Q9UKT9); experiment: ePL-tagged substrate degradation in DF15 multiple myeloma cells; type: cell-based
T3 construct: expressed in transfected cells
Method: (§3) DF15 multiple myeloma cells stably expressing ePL-tagged Aiolos, Ikaros, or GSPT1, and MDS-L cells stably expressing ePL-tagged CK1a were generated via lentiviral infection with pLOC-ePL-Aiolos (or Ikaros, GSPT1, or CK1a). […] Compounds were dispensed by an acoustic dispenser (ATS acoustic transfer system from EDC Biosystems) into a 384-well plate in a 10-point dose response curve using 3-fold dilutions starting at 10 μM and going down to […]. Then, 25 μL of media (RPMI-1640+10% heat inactivated FBS+25 mM Hepes+1 mM Na pyruvate+1× NEAA+1×Pen Strep Glutamine) containing 5000 of DF15 or MSD-L cells was dispensed per well. Assay plates were incubated at 37° C. with 5% CO2 for 4 hours except 20 hours for GSPT1. After incubation, 25 μL of the InCELL Hunter detection reagent working solution (DiscoverX, catalogue no. 96-0002, Fremont, Calif.) was added to each well and incubated at room temperature for 60 min protected from light. After 60 min, luminescence was read on an Envision or PHERAstar luminescence reader.
All substrate degradation curves were processed and evaluated using ActivityBase (IDBS), a data analysis software package. Ymin is minimum percent protein remaining.

ePL-tagged GSPT1 = biological target: T4, ePL-tagged GSPT1 (Homo sapiens, UniProt P15170+Q96SW2); experiment: as above; type: cell-based
T4 construct: expressed in transfected cells
Method: as §3
(§4) To determine the EC50 value of a compound for the degradation of a given substrate (concentration of compound that achieves half the maximum degradation observed), a four-parameter logistic model (sigmoidal dose—response model) (FIT=(A+{(B−A)/1+[(C/x)D]})) where C is the inflection point (EC50), D is the […], and A and B are the low and high limits of the fit, respectively) was used. All substrate degradation curves were processed and evaluated using ActivityBase (IDBS), a data analysis software package. Ymin is minimum percent protein remaining.

ePL-tagged Ikaros = biological target: T5, ePL-tagged Ikaros (Homo sapiens, UniProt Q13422+Q96SW2); experiment: as above; type: cell-based
T5 construct: expressed in transfected cells
Method: as §3, §4

ePL-tagged CK1a = biological target: T6, ePL-tagged CK1a (Homo sapiens, UniProt P48729+Q96SW2); experiment: ePL-tagged substrate degradation in MDS-L cells; type: cell-based
T6 construct: expressed in transfected cells
Method: as §3, §4

[5] = test system: CD19 CARs tagged with IKZF1 ZNF2_ZNF3 Q1F; experiment: Small-molecule screen: Q1F degron-tagged CD19 CAR levels in Jurkat cells, flow cytometry; type: cell-based, human; settings: versus Helios, Aiolos, Ikaros, GSPT1, CK1a

T1 sequence (Q13422 whole entry Q146F): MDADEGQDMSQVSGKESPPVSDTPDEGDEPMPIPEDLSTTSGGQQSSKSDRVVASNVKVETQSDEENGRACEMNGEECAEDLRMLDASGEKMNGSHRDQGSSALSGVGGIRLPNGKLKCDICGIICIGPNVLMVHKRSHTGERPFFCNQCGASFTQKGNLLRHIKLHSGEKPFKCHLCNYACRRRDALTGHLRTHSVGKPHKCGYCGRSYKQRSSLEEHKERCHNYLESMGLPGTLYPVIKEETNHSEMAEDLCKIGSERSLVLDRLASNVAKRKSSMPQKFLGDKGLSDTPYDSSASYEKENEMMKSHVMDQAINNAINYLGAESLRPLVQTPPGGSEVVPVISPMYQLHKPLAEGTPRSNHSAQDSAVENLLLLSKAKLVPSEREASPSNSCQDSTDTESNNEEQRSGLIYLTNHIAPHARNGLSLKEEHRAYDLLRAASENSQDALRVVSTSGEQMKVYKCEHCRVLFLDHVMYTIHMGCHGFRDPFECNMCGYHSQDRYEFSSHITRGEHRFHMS
T3 sequence (Q9UKT9 whole entry): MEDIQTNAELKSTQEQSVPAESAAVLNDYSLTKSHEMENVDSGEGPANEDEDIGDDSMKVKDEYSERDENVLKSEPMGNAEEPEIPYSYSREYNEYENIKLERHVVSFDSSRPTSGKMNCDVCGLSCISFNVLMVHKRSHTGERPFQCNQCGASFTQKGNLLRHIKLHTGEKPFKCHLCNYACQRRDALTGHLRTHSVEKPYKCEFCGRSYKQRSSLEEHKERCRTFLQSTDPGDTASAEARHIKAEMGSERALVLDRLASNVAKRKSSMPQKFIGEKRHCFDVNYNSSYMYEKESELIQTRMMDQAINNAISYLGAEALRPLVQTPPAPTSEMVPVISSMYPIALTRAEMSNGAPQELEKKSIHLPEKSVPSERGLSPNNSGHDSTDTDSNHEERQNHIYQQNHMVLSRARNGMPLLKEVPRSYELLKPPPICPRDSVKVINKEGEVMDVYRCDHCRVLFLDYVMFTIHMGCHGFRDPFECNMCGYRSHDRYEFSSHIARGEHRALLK
T3 sequence (Q96SW2 whole entry): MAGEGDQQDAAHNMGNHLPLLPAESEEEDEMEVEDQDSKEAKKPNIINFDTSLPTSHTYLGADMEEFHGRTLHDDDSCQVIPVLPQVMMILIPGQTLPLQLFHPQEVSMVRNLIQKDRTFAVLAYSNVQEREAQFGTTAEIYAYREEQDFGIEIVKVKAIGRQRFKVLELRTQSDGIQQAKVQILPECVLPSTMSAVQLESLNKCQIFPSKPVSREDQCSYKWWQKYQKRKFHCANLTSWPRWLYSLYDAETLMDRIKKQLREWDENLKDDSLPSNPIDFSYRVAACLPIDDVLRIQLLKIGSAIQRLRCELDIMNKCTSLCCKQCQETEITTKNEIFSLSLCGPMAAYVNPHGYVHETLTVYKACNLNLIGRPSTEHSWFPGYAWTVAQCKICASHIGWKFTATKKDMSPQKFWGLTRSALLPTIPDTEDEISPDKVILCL
T3 sequence (Q16531 whole entry partner): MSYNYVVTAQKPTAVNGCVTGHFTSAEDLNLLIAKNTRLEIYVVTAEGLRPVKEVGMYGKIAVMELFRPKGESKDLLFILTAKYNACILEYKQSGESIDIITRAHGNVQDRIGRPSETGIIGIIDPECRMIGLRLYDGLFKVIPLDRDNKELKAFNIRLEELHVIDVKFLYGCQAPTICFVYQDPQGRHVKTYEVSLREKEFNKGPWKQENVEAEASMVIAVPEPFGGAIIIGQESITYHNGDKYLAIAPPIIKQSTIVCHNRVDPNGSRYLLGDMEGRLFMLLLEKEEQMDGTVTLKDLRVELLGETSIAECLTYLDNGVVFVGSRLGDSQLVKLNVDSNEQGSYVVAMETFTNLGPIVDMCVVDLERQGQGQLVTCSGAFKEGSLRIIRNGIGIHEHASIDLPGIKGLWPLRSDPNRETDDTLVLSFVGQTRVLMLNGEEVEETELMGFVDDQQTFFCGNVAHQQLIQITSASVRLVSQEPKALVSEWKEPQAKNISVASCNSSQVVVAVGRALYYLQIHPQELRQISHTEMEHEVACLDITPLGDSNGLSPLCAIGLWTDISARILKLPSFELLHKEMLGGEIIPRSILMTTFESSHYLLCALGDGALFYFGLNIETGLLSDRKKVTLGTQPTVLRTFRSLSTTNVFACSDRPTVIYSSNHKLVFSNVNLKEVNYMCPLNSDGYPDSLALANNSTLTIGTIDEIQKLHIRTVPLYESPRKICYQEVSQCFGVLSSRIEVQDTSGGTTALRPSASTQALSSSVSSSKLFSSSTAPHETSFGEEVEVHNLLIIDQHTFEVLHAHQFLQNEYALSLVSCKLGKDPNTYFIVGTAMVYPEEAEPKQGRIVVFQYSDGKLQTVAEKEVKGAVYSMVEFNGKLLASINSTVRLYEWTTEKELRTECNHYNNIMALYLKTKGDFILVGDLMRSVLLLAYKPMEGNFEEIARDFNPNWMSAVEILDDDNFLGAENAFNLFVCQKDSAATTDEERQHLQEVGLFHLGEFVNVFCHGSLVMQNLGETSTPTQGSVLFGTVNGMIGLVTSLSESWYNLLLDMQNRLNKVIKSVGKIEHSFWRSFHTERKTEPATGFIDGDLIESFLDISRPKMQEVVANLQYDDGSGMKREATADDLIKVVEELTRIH
T4 sequence (P15170 whole entry): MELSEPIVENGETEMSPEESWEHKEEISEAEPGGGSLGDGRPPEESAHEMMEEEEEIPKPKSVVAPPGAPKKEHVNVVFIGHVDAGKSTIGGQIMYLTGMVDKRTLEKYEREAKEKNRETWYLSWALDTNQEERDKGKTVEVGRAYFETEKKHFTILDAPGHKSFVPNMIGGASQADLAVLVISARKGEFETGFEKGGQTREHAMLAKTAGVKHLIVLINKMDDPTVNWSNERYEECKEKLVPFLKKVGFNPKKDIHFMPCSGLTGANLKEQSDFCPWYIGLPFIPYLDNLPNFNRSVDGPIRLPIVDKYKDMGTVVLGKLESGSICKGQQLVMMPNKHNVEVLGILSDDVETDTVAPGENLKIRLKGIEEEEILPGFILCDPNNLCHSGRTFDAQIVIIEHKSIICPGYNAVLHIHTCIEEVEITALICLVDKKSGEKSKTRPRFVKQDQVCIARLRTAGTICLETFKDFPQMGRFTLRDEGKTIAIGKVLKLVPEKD
T4 sequence (Q96SW2 whole entry): as the sequence (Q96SW2 whole entry) above
T4 sequence (Q16531 whole entry partner): as the sequence (Q16531 whole entry partner) above
T5 sequence (Q13422 whole entry): as the sequence (Q13422 whole entry Q146F) above, with F146Q counted along it
T5 sequence (Q96SW2 whole entry): as the sequence (Q96SW2 whole entry) above
T5 sequence (Q16531 whole entry partner): as the sequence (Q16531 whole entry partner) above
T6 sequence (P48729 whole entry): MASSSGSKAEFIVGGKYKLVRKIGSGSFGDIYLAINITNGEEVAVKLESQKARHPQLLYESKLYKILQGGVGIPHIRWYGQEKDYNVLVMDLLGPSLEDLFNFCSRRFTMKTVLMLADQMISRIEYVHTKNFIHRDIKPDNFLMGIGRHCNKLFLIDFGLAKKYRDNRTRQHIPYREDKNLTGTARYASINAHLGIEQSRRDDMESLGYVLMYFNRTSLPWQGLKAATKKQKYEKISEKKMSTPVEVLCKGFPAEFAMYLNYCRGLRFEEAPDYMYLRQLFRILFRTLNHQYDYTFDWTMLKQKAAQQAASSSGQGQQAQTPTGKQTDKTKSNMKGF
T6 sequence (Q96SW2 whole entry): as the sequence (Q96SW2 whole entry) above
T6 sequence (Q16531 whole entry partner): as the sequence (Q16531 whole entry partner) above
T2 sequence (Q13422 141-196 Q146F): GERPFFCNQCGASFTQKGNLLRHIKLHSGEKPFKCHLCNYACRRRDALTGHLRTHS

Ymin (%) ([1]; Degron Q1F (from Table 1), minimum percent protein remaining): 12%
DC50 ([1]; Degron Q1F (from Table 1), read-out: EC50 (the source's name)): 23 nM
DC50 ([1]; Jurkat assay described in Example 5, read-out: EC50 for the Q1F degron): < 25 nM
Ymin (Q1F degron) ([1]; Jurkat cells, 18 hours, CAR levels normalized to no drug): 12%
DC50 ([1]; Jurkat cells, 18 hours, CAR levels normalized to no drug, read-out: EC50 (Q1F degron)): 23 nM
levels of tagged CAR [2]: remained identical to untagged CAR
Ymin (%) (ePL-tagged Aiolos): 83%
DC50 (ePL-tagged Aiolos; Aiolos, DF15 cells, 4 hours, read-out: EC50 (the source's name)): > 10000 nM
Ymin (%) (ePL-tagged GSPT1): 89%
DC50 (ePL-tagged GSPT1; GSPT1, DF15 cells, 20 hours, read-out: EC50 (the source's name)): > 10000 nM
Ymin (%) (ePL-tagged Ikaros): 92%
DC50 (ePL-tagged Ikaros; Ikaros, DF15 cells, 4 hours, read-out: EC50 (the source's name)): > 10000 nM
Ymin (%) (ePL-tagged CK1a): 98%
DC50 (ePL-tagged CK1a; CK1a, MDS-L cells, 4 hours, read-out: EC50 (the source's name)): > 10000 nM
SMILES: Cc1ncccc1N1CCN(Cc2ccc3c(c2)CN(C2CCC(=O)NC2=O)C3=O)CC1 (stereo not drawn) [Compound C, 3-(5-((4-(2-methylpyridin-3-yl)piperazin-1-yl)methyl)-1-oxoisoindolin-2-yl)piperidine-2,6-dione]
tagged CAR remaining ([3]; WT Jurkat cells, 1 hour): below 20%
tagged CAR degradation in the presence of inhibitor ([3]; WT Jurkats, 2 hours, 20 nM or 200 nM, alongside 2 μM MLN4924 or 2 μM Bortezomib): failure to degrade tagged CAR
effector function of primary CAR T cells (killing and cytokine production) [4]: could be titrated
selectivity for the Q1F degron (in words) [5]: highly selective for the Q1F degron
